Test results published in patent publication US20100009907A1, “Glucagon-Like Peptides and Uses Thereof” (AMYLIN PHARMACEUTICALS, INC., priority 2006, published 2010).
Where no end group is shown, it is not given here.

Legend:
[1] = Acute food intake assay (FI Assay); format: in vivo, NIH/Swiss mice; details: 1000 μg/kg intraperitoneal, relative to vehicle
Protocol: The effect of various test peptides on food intake is investigated using an acute food intake assay. This assay measures food consumption in lean, group-housed, overnight-fasted NIH/Swiss mice. Twelve mice are housed three to a cage. […] Decreased, as well as increased, food intake is measured. Testing of the various doses of the polypeptide generates ED50s.
Female NIH/Swiss mice (8-24 weeks old) are group housed with a 12:12 hour light:dark cycle with lights on at 0600. Water and a standard pelleted mouse chow diet are available ad libitum, except as noted. Animals are fasted starting at approximately 1500 hrs, 1 day prior to experiment. The morning of the experiment, animals are divided into experimental groups.
At time=0 min, all animals are given an intraperitoneal injection of vehicle or compound in an amount ranging from about 63 to 1000 μg/kg, and immediately given a pre-weighed amount (10-15 g) of the standard chow.

[2] = target: T1, RINm5f cells expressing endogenous GLP-1, calcitonin, and GIP receptors (Rattus norvegicus, UniProt P32301); test: GLP/GIP/CT cAMP (RIN) assay; format: cell-based
T1 construct: RINm5f cells expressing endogenous GLP-1, calcitonin, and GIP receptors; endogenous in cells; host or cells: RINm5f cells
T1 sequence (P32301 22-463): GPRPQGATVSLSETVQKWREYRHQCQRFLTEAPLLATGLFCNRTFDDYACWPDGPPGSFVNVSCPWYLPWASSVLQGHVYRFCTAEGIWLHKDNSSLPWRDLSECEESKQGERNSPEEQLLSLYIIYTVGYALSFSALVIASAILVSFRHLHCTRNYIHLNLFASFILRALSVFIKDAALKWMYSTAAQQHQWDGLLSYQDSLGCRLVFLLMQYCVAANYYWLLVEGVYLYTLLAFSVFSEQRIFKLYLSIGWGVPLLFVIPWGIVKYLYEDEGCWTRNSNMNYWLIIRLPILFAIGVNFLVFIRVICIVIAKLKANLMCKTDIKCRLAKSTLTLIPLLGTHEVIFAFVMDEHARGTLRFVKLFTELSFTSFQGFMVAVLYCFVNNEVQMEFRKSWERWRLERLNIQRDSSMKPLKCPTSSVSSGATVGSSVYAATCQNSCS
Protocol: In addition, receptor binding can be measured using cells prepared from confluent cultures of RINm5f cells expressing endogenous GLP-1, calcitonin, and GIP receptors. Cells, and peptide or buffer solution are combined in 384-well plates. After a 30-minute incubation at room temperature in air, cAMP content is measured as recommended in the Perkin-Elmer AlphaScreen kit instructions.
(§1) Cells, and peptide or buffer solutions are combined in 384-well plates and incubated at room temperature in air for 30-minutes. cAMP content can then be measured according to recommendations in the Perkin-Elmer AlphaScreen™ kit instructions using the Perkin Elmer Fusion fluorimeter and data are analyzed using XLfit software (IDBS).

[3] = target: T2, GLP-1 receptor (RINm5F cell membranes) (Rattus norvegicus, UniProt P32301); test: GLP-1 receptor binding assay (GLP RBA), [125I]GLP-1 displacement; details: [125I]GLP-1 tracer
T2 construct: RINm5F insulinoma cells expressing endogenous GLP-1 receptors; endogenous in cells; host or cells: RINm5F cell membranes
T2 sequence (P32301 22-463): T1 sequence (P32301 22-463)
Protocol: Reaction mixtures are filtered through glass filter pads presoaked with 0.3% PEI solution and rinsed with ice-cold phosphate buffered saline. Bound counts are determined using a scintillation counter. Binding affinities are calculated using GraphPad Prism software (GraphPad Software, Inc., San Diego, Calif.).

[4] = target: T3, rat thyroid carcinoma 6-23 clone 6 cells expressing endogenous GLP-1 receptors (Rattus norvegicus, UniProt P32301); test: GLP-1 cAMP (6-23) cyclase assay; format: cell-based
T3 construct: rat thyroid carcinoma 6-23 clone 6 cells or RINm5F insulinoma cells expressing endogenous GLP-1 receptors; endogenous in cells; host or cells: rat thyroid carcinoma 6-23 clone 6 cells
T3 sequence (P32301 22-463): T1 sequence (P32301 22-463)
Protocol: as §1

DPP-IV = DPP-IV (Homo sapiens, UniProt P27487); test: Stability by DPP IV assay; format: in vitro ADME; details: isolated DPP-IV enzyme, DPP-IV approximately 5 mUnit, 37° C., intact peptide remaining, read-out: DDP IV % Stable
Sequence of DPP-IV (P27487 whole entry, species assumed): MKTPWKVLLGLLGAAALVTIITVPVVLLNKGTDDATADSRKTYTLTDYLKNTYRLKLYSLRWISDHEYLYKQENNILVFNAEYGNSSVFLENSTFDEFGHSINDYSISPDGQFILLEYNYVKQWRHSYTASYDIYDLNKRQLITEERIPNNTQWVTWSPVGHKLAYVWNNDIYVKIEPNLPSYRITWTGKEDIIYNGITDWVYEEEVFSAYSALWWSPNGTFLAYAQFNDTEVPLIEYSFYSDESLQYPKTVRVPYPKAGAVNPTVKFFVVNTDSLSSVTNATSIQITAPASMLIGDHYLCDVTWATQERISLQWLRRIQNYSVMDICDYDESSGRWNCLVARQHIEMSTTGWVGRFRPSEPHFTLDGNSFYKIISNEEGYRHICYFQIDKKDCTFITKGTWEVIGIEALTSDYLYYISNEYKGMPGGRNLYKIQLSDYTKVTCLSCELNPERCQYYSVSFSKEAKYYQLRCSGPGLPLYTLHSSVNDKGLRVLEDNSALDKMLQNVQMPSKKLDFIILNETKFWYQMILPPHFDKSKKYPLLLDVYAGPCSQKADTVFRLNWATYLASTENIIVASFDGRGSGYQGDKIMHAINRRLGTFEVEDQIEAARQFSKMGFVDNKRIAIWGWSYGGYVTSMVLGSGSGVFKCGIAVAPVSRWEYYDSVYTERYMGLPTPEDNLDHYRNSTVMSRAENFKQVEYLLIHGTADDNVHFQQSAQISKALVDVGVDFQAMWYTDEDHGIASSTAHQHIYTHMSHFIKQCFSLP
Protocol: DPP-IV, approximately 5 mUnit in 5 mM Tris-HCl was added to 625 μL HEPES buffer (25 mM) in a 1.5 mL polypropylene microcentrifuge tube with an O-ring seal to prevent evaporation. Peptide stock solution, 70 μL (300 μM in 50% acetonitrile) was carefully added to this and mixed by brief manual shaking. Next, the solution was aliquoted into six tubes (6×100 μl. One tube contained 200 μL Stop solution (50% acetonitrile and 1% formic acid) that was used to determine the initial concentration of peptide (t=0). All six aliquots were then incubated at 37° C. while mixing at 500 RPM in the Vortemp 56 incubator. The digestion was stopped at 10 min intervals by adding 200 μL stop solution. The tube was then placed back into the incubator for 50 min. The solution was centrifuged at 19000×g for 10 minutes at room temperature. The supernatant was removed and 200 μL supernatant was transferred to an autosampler vials for analysis.
The most intense ion of the intact peptide was monitored to determine the rates of degradation and to quantify the amount of intact peptide remaining in the solution.

Row | GLP/GIP/CT cAMP(RIN) EC50 [2] [nM] | IC50 [3] [nM] | Compound | other results
1 |  |  | HAEFTYTNDVTEYLEEKAAKEFIEWLIKGGPSSGAPPPS-NH2 [compound 19] | Food Intake % inhibition 30 min [1]: 51%; Food Intake % inhibition 60 min [1]: 67%; Food Intake % inhibition 120 min [1]: 75%; Food Intake % inhibition 180 min [1]: 77%
2 | 0.36 | 0.1 | CC[C@H](C)[C@H](NC(=O)[C@H](CC(C)C)NC(=O)[C@H](Cc1c[nH]c2ccccc12)NC(=O)[C@H](CCC(=O)O)NC(=O)[C@@H](NC(=O)[C@H](Cc1ccccc1)NC(=O)[C@H](CCC(=O)O)NC(=O)[C@H](CCCCN)NC(=O)[C@H](C)NC(=O)[C@H](C)NC(=O)[C@H](CCCCN)NC(=O)[C@H](CCC(=O)O)NC(=O)[C@H](CCC(=O)O)NC(=O)[C@H](CC(C)C)NC(=O)[C@H](Cc1ccc(O)cc1)NC(=O)[C@H](CCC(=O)O)NC(=O)[C@@H](NC(=O)[C@@H](NC(=O)[C@H](CC(=O)O)NC(=O)[C@H](CC(N)=O)NC(=O)[C@@H](NC(=O)[C@H](Cc1ccc(O)cc1)NC(=O)[C@@H](NC(=O)CNC(=O)[C@H](CCC(=O)O)NC(=O)[C@H](C)NC(=O)[C@@H](N)Cc1c[nH]cn1)[C@@H](C)O)[C@@H](C)O)C(C)C)[C@@H](C)O)[C@@H](C)CC)C(=O)N[C@@H](CCCCN)C(=O)NCC(=O)N[C@@H](CCCCN)C(=O)N1CCC[C@H]1C(=O)N[C@@H](CCCCN)C(=O)N[C@@H](CCCCN)C(=O)N[C@H](C(=O)N[C@@H](CCCNC(=N)N)C(=O)N[C@@H](Cc1ccc(O)cc1)C(=O)N[C@@H](CO)C(N)=O)[C@@H](C)CC [compound 2] | 
3 |  | 0.28 | HAEGTYTNDVTEYLEEKAAKEFIEWLIGKPKKIRYS-NH2 (C-terminus assumed) [compound 35] | 
4 | 0.967 | 0.11 | HGEGTYTNDVTEYLEEKAAKEFIEWLIKGKPKKIRYS-NH2 (C-terminus assumed) [compound 26] | 
5 | 14 | 34 | HADGTYTSDVSSYLQDQAAKDFITWLKSGQPKPDAVET-NH2 [compound 48] | 
6 |  | 0.36 | HAEGTYTNDVTEYLEEKAAKEFIEWLIKGPKKIRYS-NH2 (C-terminus assumed) [compound 36] | 
7 |  |  | HAEGTYTNDVTEYLEEAAKEFIEWLIKGKPKKIRYS-NH2 (C-terminus assumed) [compound 30] | EC50 [4]: > 1000 nM
8 | 18 | 18 | HAEGTFTSDVTQQLDEKAAKEFIDWLINPGSEGIKSI-NH2 (C-terminus assumed) [compound 14] | 
9 | 196 | 74 | HAEGTFTSDVTQQLDEKAAKEFIDALINGGPSKEIIS-NH2 (C-terminus assumed) [compound 13] | 
10 |  |  | HAEGTYTNDTEYLEEKAAKEFIEWLIKGKPKKIRYS-NH2 (C-terminus assumed) [compound 39] | EC50 [4]: > 1000 nM
11 | 4.7 | 3 | CC[C@H](C)[C@H](NC(=O)[C@H](CC(C)C)NC(=O)[C@H](Cc1c[nH]c2ccccc12)NC(=O)[C@H](CC(=O)O)NC(=O)[C@@H](NC(=O)[C@H](Cc1ccccc1)NC(=O)[C@H](CCC(=O)O)NC(=O)[C@H](CCCCN)NC(=O)[C@H](C)NC(=O)[C@H](C)NC(=O)[C@H](CCCCN)NC(=O)[C@H](CCC(=O)O)NC(=O)[C@H](CC(=O)O)NC(=O)[C@H](CC(C)C)NC(=O)[C@H](CCC(N)=O)NC(=O)[C@H](CCC(N)=O)NC(=O)[C@@H](NC(=O)[C@@H](NC(=O)[C@H](CC(=O)O)NC(=O)[C@H](CO)NC(=O)[C@@H](NC(=O)[C@H](Cc1ccccc1)NC(=O)[C@@H](NC(=O)CNC(=O)[C@H](CCC(=O)O)NC(=O)[C@H](C)NC(=O)[C@@H](N)Cc1c[nH]cn1)[C@@H](C)O)[C@@H](C)O)C(C)C)[C@@H](C)O)[C@@H](C)CC)C(=O)N[C@@H](CC(N)=O)C(N)=O [compound 7] | 
12 |  |  | CC[C@H](C)[C@H](NC(=O)[C@H](Cc1ccccc1)NC(=O)[C@H](CCC(=O)O)NC(=O)[C@H](CCCCN)NC(=O)[C@H](C)NC(=O)[C@H](C)NC(=O)[C@H](CCC(N)=O)NC(=O)CNC(=O)[C@H](CCC(=O)O)NC(=O)[C@H](CC(C)C)NC(=O)[C@H](Cc1ccc(O)cc1)NC(=O)[C@H](CO)NC(=O)[C@H](CO)NC(=O)[C@@H](NC(=O)[C@H](CC(=O)O)NC(=O)[C@H](CO)NC(=O)[C@@H](NC(=O)[C@H](Cc1ccccc1)NC(=O)[C@@H](NC(=O)CNC(=O)[C@H](CCC(=O)O)NC(=O)[C@H](C)NC(=O)[C@@H](N)Cc1c[nH]cn1)[C@@H](C)O)[C@@H](C)O)C(C)C)C(=O)N[C@@H](C)C(=O)N[C@@H](Cc1c[nH]c2ccccc12)C(=O)N[C@@H](CC(C)C)C(=O)N[C@H](C(=O)N[C@@H](CCCCN)C(=O)NCC(=O)N[C@@H](CCCNC(=N)N)C(N)=O)C(C)C [compound 3] | Food Intake % inhibition 30 min [1]: 13%; Food Intake % inhibition 60 min [1]: 13%; Food Intake % inhibition 120 min [1]: 11%
13 |  |  | CC[C@H](C)[C@H](NC(=O)[C@H](CC(C)C)NC(=O)[C@H](Cc1c[nH]c2ccccc12)NC(=O)[C@H](CCC(=O)O)NC(=O)[C@@H](NC(=O)[C@H](Cc1ccccc1)NC(=O)[C@H](CCC(=O)O)NC(=O)[C@H](CCCCN)NC(=O)[C@H](C)NC(=O)[C@H](C)NC(=O)[C@H](CCCCN)NC(=O)[C@H](CCC(=O)O)NC(=O)[C@H](CCC(=O)O)NC(=O)[C@H](CC(C)C)NC(=O)[C@H](Cc1ccc(O)cc1)NC(=O)[C@H](CCC(=O)O)NC(=O)[C@@H](NC(=O)[C@@H](NC(=O)[C@H](CC(=O)O)NC(=O)[C@H](CC(N)=O)NC(=O)[C@@H](NC(=O)[C@H](Cc1ccc(O)cc1)NC(=O)[C@@H](NC(=O)CNC(=O)[C@H](CCC(=O)O)NC(=O)[C@H](C)NC(=O)[C@@H](N)Cc1c[nH]cn1)[C@@H](C)O)[C@@H](C)O)C(C)C)[C@@H](C)O)[C@@H](C)CC)C(N)=O [compound 42] | EC50 [4]: 0.22 nM
14 |  | 22 | EGTYTNDVTEYLEEKAAKEFIEWLIKGKPKKIRYS-NH2 (C-terminus assumed) [compound 37] | EC50 [4]: > 1000 nM
15 | 1.9 | 3 | CC[C@H](C)[C@H](NC(=O)[C@H](CC(C)C)NC(=O)[C@H](Cc1c[nH]c2ccccc12)NC(=O)[C@H](CC(=O)O)NC(=O)[C@@H](NC(=O)[C@H](Cc1ccccc1)NC(=O)[C@H](CCC(=O)O)NC(=O)[C@H](CCCCN)NC(=O)[C@H](C)NC(=O)[C@H](C)NC(=O)[C@H](CCCCN)NC(=O)[C@H](CCC(=O)O)NC(=O)[C@H](CC(=O)O)NC(=O)[C@H](CC(C)C)NC(=O)[C@H](CCC(N)=O)NC(=O)[C@H](CCC(N)=O)NC(=O)[C@@H](NC(=O)[C@@H](NC(=O)[C@H](CC(=O)O)NC(=O)[C@H](CO)NC(=O)[C@@H](NC(=O)[C@H](Cc1ccccc1)NC(=O)[C@@H](NC(=O)CNC(=O)[C@H](CCC(=O)O)NC(=O)[C@H](C)NC(=O)[C@@H](N)Cc1c[nH]cn1)[C@@H](C)O)[C@@H](C)O)C(C)C)[C@@H](C)O)[C@@H](C)CC)C(=O)N[C@@H](CC(N)=O)C(=O)NCC(=O)NCC(=O)N1CCC[C@H]1C(=O)N[C@@H](CO)C(=O)N[C@@H](CCCCN)C(=O)N[C@@H](CCC(=O)O)C(=O)N[C@H](C(=O)N[C@H](C(=O)N[C@@H](CO)C(=O)O)[C@@H](C)CC)[C@@H](C)CC [compound 1] | remaining at 50 min, 30 µM (DPP-IV): 99%; Food Intake % inhibition 30 min [1]: 56%; Food Intake % inhibition 60 min [1]: 69%; Food Intake % inhibition 120 min [1]: 73%; Food Intake % inhibition 180 min [1]: 72%
16 | 1.23 | 1 | HAEGTFTNDMTNYLEEKAAKEFVGWLIKGRS-NH2 (C-terminus assumed) [compound 6] | 
